Experimental data as given in PMC5656517 (European journal of pharmaceutical sciences : official …, 2017).

Columns and labels:
CYP2C9 = CYP2C9 (Homo sapiens, UniProt P11712); settings: recombinant enzymes; ref Kent et al., (2002); cited from earlier work
CYP2B6 [1] = biological target: T1, CYP2B6 (Homo sapiens, UniProt P20813); settings: recombinant enzymes; ref Kent et al., (2002); cited from earlier work
T1 sequence (P20813 1-491): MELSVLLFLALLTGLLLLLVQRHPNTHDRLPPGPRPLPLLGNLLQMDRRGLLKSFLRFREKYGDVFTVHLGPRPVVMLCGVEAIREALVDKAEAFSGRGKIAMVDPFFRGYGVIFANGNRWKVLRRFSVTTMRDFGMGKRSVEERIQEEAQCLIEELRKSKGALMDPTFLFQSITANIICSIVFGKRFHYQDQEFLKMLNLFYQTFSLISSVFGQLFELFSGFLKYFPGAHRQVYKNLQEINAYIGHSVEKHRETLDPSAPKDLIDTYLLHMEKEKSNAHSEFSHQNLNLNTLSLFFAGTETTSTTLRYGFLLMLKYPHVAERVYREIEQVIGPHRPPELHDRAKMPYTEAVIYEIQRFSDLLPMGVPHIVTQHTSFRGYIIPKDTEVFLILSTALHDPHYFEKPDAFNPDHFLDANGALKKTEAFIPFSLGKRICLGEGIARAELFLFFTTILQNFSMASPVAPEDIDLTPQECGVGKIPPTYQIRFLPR

CYP3A4 [2] = biological target: T2, CYP3A4 (Homo sapiens, UniProt P08684)
CYP2B6 [3] = biological target: T1, CYP2B6; assay: Single concentration; type: in vitro ADME; settings: human liver microsomes
[4] = test system: one or more cytochrome P450 enzymes (CYP1A2, 2A6, 2B6, 2C8, 2C9, 2C19, 2D6, 2E1, 3A4); isoform not specified per value; assay: in vitro; settings: human, pH 7.4
CYP3A4 [5] = biological target: T2, CYP3A4; settings: recombinant enzymes; ref Kent et al., (2002); cited from earlier work
CYP2C = assay: Single concentration; type: in vitro ADME; settings: human liver microsomes
CYP2D6 = CYP2D6 (Homo sapiens, UniProt P10635); assay: Single concentration; type: in vitro ADME; settings: human liver microsomes
cytochrome P450 enzymes = assay: Single concentration; settings: 10 µM, 9 isoforms

T2 sequence (P08684 whole entry): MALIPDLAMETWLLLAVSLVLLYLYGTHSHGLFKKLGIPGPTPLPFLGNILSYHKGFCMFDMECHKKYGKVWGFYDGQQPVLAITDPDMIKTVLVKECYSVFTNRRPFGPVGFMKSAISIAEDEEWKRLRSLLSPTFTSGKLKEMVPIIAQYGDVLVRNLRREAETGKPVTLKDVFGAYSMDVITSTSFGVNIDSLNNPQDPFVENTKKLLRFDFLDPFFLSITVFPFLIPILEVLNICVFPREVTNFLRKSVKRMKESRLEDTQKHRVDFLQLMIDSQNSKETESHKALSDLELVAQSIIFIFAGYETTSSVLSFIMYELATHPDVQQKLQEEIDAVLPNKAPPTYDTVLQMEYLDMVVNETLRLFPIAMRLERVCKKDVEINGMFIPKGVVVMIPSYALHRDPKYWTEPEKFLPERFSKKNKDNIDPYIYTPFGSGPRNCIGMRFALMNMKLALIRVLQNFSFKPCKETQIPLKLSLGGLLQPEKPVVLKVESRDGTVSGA
Chain of CYP2C9 (P11712 whole entry): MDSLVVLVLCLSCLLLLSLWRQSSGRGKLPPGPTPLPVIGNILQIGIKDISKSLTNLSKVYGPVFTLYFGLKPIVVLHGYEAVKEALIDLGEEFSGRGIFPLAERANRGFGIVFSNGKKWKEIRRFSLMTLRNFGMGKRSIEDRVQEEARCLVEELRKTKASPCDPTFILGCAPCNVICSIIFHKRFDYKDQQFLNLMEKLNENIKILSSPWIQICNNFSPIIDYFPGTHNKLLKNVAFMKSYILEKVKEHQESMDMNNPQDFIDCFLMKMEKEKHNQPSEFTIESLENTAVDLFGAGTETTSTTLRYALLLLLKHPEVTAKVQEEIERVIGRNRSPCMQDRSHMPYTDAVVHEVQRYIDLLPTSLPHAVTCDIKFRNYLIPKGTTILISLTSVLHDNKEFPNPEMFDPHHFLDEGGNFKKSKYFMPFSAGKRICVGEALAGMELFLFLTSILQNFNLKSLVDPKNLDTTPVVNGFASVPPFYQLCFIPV
Chain of CYP2D6 (P10635 whole entry, canonical isoform): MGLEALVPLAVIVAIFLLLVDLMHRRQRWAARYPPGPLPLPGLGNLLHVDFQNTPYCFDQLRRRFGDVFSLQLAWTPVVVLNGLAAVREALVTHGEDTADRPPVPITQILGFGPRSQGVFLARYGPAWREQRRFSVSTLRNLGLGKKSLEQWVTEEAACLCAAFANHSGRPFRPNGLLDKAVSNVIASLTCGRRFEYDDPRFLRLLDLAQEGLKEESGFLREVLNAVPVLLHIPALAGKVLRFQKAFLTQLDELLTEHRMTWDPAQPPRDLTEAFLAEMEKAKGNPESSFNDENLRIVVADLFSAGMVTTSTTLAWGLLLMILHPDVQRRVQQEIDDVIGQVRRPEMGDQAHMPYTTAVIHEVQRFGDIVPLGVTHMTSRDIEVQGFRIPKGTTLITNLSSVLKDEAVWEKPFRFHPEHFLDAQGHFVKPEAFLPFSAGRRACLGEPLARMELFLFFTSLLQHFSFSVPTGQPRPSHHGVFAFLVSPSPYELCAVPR

Row | Compound | mode of CYP3A4 inhibition, in words (CYP3A4 [2]) | inhibition of CYP2B6 at 10 µM, in words (CYP2B6 [3]) | inhibition at 10 min, 10 µM [4] [%] | inhibition of any cytochrome P450 enzyme, in words (cytochrome P450 enzymes) | further results
1 | CC1(C)C=Cc2c(ccc3c2OC[C@@H](c2ccc(O)cc2O)C3)O1 [Glabridin, glabridin] | competitively inhibited | not inhibition | > 50 | – | inhibition of CYP2C9, in words (CYP2C9): reversibly inhibited; inhibition of CYP2B6, in words (CYP2B6 [1]): irreversibly inhibited; inhibition of CYP3A4, in words (CYP3A4 [5]): irreversibly inhibited
2 | O=C(/C=C/c1ccc(O)cc1)c1ccc(O)cc1O [Isoliquiritigenin, isoliquiritigenin] | competitively inhibited | – | – | – | –
3 | COc1c(CC=C(C)C)c(O)cc2oc(=O)c(-c3ccc(O)cc3O)cc12 [Glycycoumarin, glycycoumarin] | – | inhibited | > 50 | – | inhibition of CYP2C at 10 µM, in words (CYP2C): inhibited; inhibition of CYP2D6 at 10 µM, in words (CYP2D6): did not observe significant inhibition
4 | O=C(/C=C/c1ccc(O[C@@H]2O[C@H](CO)[C@@H](O)[C@H](O)[C@H]2O)cc1)c1ccc(O)cc1O [Isoliquiritin, isoliquiritin] | – | – | – | did not inhibit | –
5 | liquiritin apioside | – | – | – | did not inhibit | –
6 | COc1c(CC=C(C)C)c(O)cc2c1C[C@H](c1ccc(O)c(CC=C(C)C)c1O)CO2 [Licoricidin, licoricidin] | competitively inhibited | inhibited | > 50 | – | –
7 | CC1(C)[C@@H](O)CC[C@]2(C)[C@H]3C(=O)C=C4[C@@H]5C[C@@](C)(C(=O)O)CC[C@]5(C)CC[C@@]4(C)[C@]3(C)CC[C@@H]12 [18β-glycyrrhetinic acid] | – | – | > 50 | – | –
8 | isoliquiritin apioside | – | – | – | did not inhibit | –
